Experimental data as given in PubChem BioAssay AID296 (DTP/NCI, 2004).
Values joined by “and” are separate entries in the source; they are usually repeats but may differ in a detail not shown here. Equal values may be shown once. Inconclusive results are not listed.

Test system: MX-1 breast xenograft, nude mice, tumor weight T/C
Test: NCI In Vivo Anticancer Drug Screen. Data for tumor model Human Mammary Carcinoma MX-1 Xenograft (intrarenal inoculation) in NU/NU Swiss (nude) mice
Conditions: endpoint: mean tumor weight change, higher = larger tumour
Procedure, shortened: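 Activity is given as a ratio, with each measurement in the compound-treated arm divided by the matching measurement in vehicle-dosed controls. Tumour size or survival serves as the measured parameter.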

[1] = dose: 75.0 mg/kg/injection, schedule: Q04DX003 (sc), vehicle: Klucel (hydroxypropylcellulose) (HPC)
[2] = dose: 200.0 mg/kg/injection, schedule: Q01DX010 (sc), vehicle: saline with Tween-80
[3] = dose: 400.0 mg/kg/injection, schedule: Q01DX010 (sc), vehicle: saline with Tween-80
[4] = dose: 600.0 mg/kg/injection, schedule: Q04DX003 (sc), vehicle: saline with Tween-80
[5] = dose: 2400.0 mg/kg/injection, schedule: Q04DX003 (sc), vehicle: saline with Tween-80
[6] = dose: 300.0 mg/kg/injection, schedule: Q04DX003 (sc), vehicle: saline with Tween-80
[7] = dose: 1200.0 mg/kg/injection, schedule: Q04DX003 (sc), vehicle: saline with Tween-80

Q: `CNC(=O)OCc1nc(SC)n(C)c1COC(=O)NC` was tested. Which T/C (dose: 50.0 mg/kg/injection, schedule: Q04DX003 (ip), vehicle: saline) did it give?
A: The T/C was 8 % of control.

Q: What about the T/C (dose: 100.0 mg/kg/injection, schedule: Q04DX003 (ip), vehicle: saline) of the same compound?
A: The T/C was 3 % of control.

Q: What about the T/C (dose: 200.0 mg/kg/injection, schedule: Q04DX003 (ip), vehicle: saline) of the same compound?
A: The T/C was -56 % of control.

Q: With `Nc1nc(=S)c2ncn(C3CC(O)C(CO)O3)c2[nH]1` (stereo unspecified) as the compound, how does the T/C (dose: 0.94 mg/kg/injection, schedule: Q04DX003 (sc), vehicle: saline with Tween-80) read?
A: The T/C was 97 % of control.

Q: What about the T/C (dose: 1.88 mg/kg/injection, schedule: Q04DX003 (sc), vehicle: saline with Tween-80) of the same compound?
A: Its T/C is 81 % of control.

Q: What about the T/C (dose: 3.75 mg/kg/injection, schedule: Q04DX003 (sc), vehicle: saline with Tween-80) of the same compound?
A: The T/C was 97 % of control.

Q: What about the T/C (dose: 7.5 mg/kg/injection, schedule: Q04DX003 (sc), vehicle: saline with Tween-80) of the same compound?
A: The T/C was 87 % of control.

Q: What about the T/C (dose: 50.0 mg/kg/injection, schedule: Q01DX010 (sc), vehicle: Klucel (hydroxypropylcellulose) (HPC)) of the same compound?
A: Its T/C is 64 % of control.

Q: What about the T/C (dose: 100.0 mg/kg/injection, schedule: Q01DX010 (sc), vehicle: Klucel (hydroxypropylcellulose) (HPC)) of the same compound?
A: The T/C was 122 % of control.

Q: Which results are given for `CN(C)c1ccc2c(SCC(=O)OCC(=O)[C@@]3(O)CC[C@H]4[C@@H]5CCC6=CC(=O)C=C[C@]6(C)[C@H]5C(=O)C[C@@]43C)c3ccc(N(C)C)cc3nc2c1`?
A: T/C [1]: 53 % of control; T/C (dose: 150.0 mg/kg/injection, schedule: Q04DX003 (sc), vehicle: Klucel (hydroxypropylcellulose) (HPC)): 92 % of control; T/C (dose: 300.0 mg/kg/injection, schedule: Q04DX003 (sc), vehicle: Klucel (hydroxypropylcellulose) (HPC)): 39 % of control; T/C (dose: 600.0 mg/kg/injection, schedule: Q04DX003 (sc), vehicle: Klucel (hydroxypropylcellulose) (HPC)): 55 % of control

Q: What does the source list for `Cc1ccc(S(=O)(=O)NC(=S)S)cc1`?
A: T/C [2]: 98 % of control; T/C [3]: 93 % of control

Q: `O=C1C=CC(n2cc(F)c(=O)[nH]c2=O)O1` (stereo unspecified) was tested. Which T/C [1] did it give?
A: The T/C was 104 % of control.

Q: For `C/C(=N\NC(=S)N1CC2CCC(CC2)C1)c1cccc(C)n1`, which T/C (dose: 50.0 mg/kg/injection, schedule: Q04DX003 (ip), vehicle: saline with Tween-80) is on record?
A: Its T/C is 79 % of control.

Q: What does the source list for `BrC1c2cccc3cccc(c23)C1Br` (stereo unspecified)?
A: T/C [4]: 202 % of control; T/C [5]: 113 % of control

Q: For `COc1ccc(OC)c(/C=C/c2ccnc3ccccc23)c1`, which T/C (dose: 150.0 mg/kg/injection, schedule: Q04DX003 (sc), vehicle: saline with Tween-80) is on record?
A: Its T/C is 96 % of control.

Q: And the T/C [6]?
A: Its T/C is 91 % of control.

Q: And the T/C [4]?
A: The T/C was 96 % of control.

Q: And the T/C [7]?
A: Its T/C is 96 % of control.

Q: Which T/C (dose: 0.38 mg/kg/injection, schedule: Q04DX003 (sc), vehicle: saline) does the source give for `CSCS(=O)C[C@H](CO)NC(=O)/C=C/c1c(C)[nH]c(=O)[nH]c1=O` (stereo partly specified) here?
A: The T/C was 106 % of control.

Q: What about the T/C (dose: 0.75 mg/kg/injection, schedule: Q04DX003 (sc), vehicle: saline) of the same compound?
A: The T/C was 97 % of control.

Q: How did the T/C (dose: 1.0 mg/kg/injection, schedule: Q04DX003 (sc), vehicle: saline with Tween-80) turn out when `COC(C(=O)C(O)C(C)O)C1Cc2cc3cc(OC4CC(OC(C)=O)C(OC5CC(O)C(OC)C(C)O5)C(C)O4)cc(O)c3c(O)c2C(=O)C1OC1CC(OC2CC(OC3CC(C)(O)C(OC(=O)C(C)C)C(C)O3)C(O)C(C)O2)C(O)C(C)O1` (stereo unspecified) was run?
A: Its T/C is 47 % of control.

Q: What about the T/C (dose: 1.5 mg/kg/injection, schedule: Q04DX003 (sc), vehicle: saline with Tween-80) of the same compound?
A: The T/C was 11 % of control and 26 % of control and 28 % of control.

Q: What about the T/C (dose: 2.0 mg/kg/injection, schedule: Q04DX003 (sc), vehicle: saline with Tween-80) of the same compound?
A: Its T/C is 49 % of control.

Q: What about the T/C (dose: 4.0 mg/kg/injection, schedule: Q04DX003 (sc), vehicle: saline with Tween-80) of the same compound?
A: The T/C was 13 % of control.

Q: What about the T/C (dose: 8.0 mg/kg/injection, schedule: Q04DX003 (sc), vehicle: saline with Tween-80) of the same compound?
A: Its T/C is -79 % of control.

Q: With `CC(C)[NH-].CC(C)[NH-].O.O.[Cl][Pt+2][Cl]` as the compound, how does the T/C (dose: 3.12 mg/kg/injection, schedule: Q01DX010 (sc), vehicle: dextrose) read?
A: Its T/C is 80 % of control and 97 % of control.

Q: And the T/C (dose: 6.25 mg/kg/injection, schedule: Q01DX010 (sc), vehicle: dextrose)?
A: The T/C was 7 % of control and 22 % of control.

Q: And the T/C (dose: 25.0 mg/kg/injection, schedule: Q01DX010 (sc), vehicle: dextrose)?
A: Its T/C is -89 % of control.

Q: With `CN1C(=O)NC(c2ccc(Cl)cc2)(c2ccc(Cl)cc2)C1=O` as the compound, how does the T/C (dose: 50.0 mg/kg/injection, schedule: Q01DX010 (sc), vehicle: saline with Tween-80) read?
A: The T/C was 90 % of control.

Q: What about the T/C (dose: 100.0 mg/kg/injection, schedule: Q01DX010 (sc), vehicle: saline with Tween-80) of the same compound?
A: The T/C was 109 % of control.

Q: What about the T/C [2] of the same compound?
A: The T/C was 60 % of control.

Q: And the T/C [3]?
A: Its T/C is 49 % of control.

Q: What does the source list for `O=NN(CCCl)C(=O)NC1CCC(=O)NC1=O` (stereo unspecified)?
A: T/C (dose: 1.56 mg/kg/injection, schedule: Q01DX010 (sc), vehicle: saline with Tween-80): 100 % of control; T/C (dose: 3.13 mg/kg/injection, schedule: Q01DX010 (sc), vehicle: saline with Tween-80): 69 % of control and 72 % of control; T/C (dose: 6.25 mg/kg/injection, schedule: Q01DX010 (sc), vehicle: saline with Tween-80): 2 % of control and 15 % of control and 25 % of control; T/C (dose: 12.5 mg/kg/injection, schedule: Q01DX010 (sc), vehicle: saline with Tween-80): -87 % of control and -84 % of control

Q: How did the T/C (dose: 300.0 mg/kg/injection, schedule: Q04DX003 (sc), vehicle: dextrose) turn out when `CC(C)[NH-].CC(C)[NH-].[Cl][Pt+2][Cl]` was run?
A: Its T/C is 35 % of control.

Q: For `CCCCCC#CC1OC12CCCCC2` (stereo unspecified), which T/C [6] is on record?
A: The T/C was 83 % of control.

Q: What about the T/C [4] of the same compound?
A: Its T/C is 101 % of control.

Q: And the T/C [7]?
A: The T/C was 83 % of control.

Q: What about the T/C [5] of the same compound?
A: Its T/C is 78 % of control.
